In article PMC5556071, “ATR inhibition facilitates targeting of leukemia dependence on convergent nucleotide biosynthetic pathways” (Nature Communications, 2017):
Several values for one entry are separate records, joined by “and”; a condition that tells them apart may be missing. Equal entries are not always repeated.

Tested on: CEM cells
Test: Targeted LC-MS/MS-MRM of de novo and salvage dCTP biosynthesis (nucleotide pools and newly replicated DNA)
Assay type: cell-based, human
Design: key to Substrate utilization Glucose / Substrate utilization dC: ↓: partial decrease/inhibition; ↓↓↓: nearly complete inhibition; ↑: increase; ⟷: no change
Description: Cells were transferred into RPMI-1640 without glucose and supplemented with 10% dialyzed FBS (Gibco) containing the following labeled substrates: precursors for de novo [U-^13C6]glucose (Sigma-Aldrich, 389374) at 11 mM; precursors for purine salvage [U-^13C10,^15N5]dA (Cambridge Isotopes, CIL 3896), [^15N5]dA (Cambridge Isotopes, NLM-3895) and [^15N5]dG (Cambridge Isotopes, NLM-3899) at 5 µM or as indicated; and precursors for pyrimidine salvage: [U-^13C9,^15N3]dC (Silantes, 124603602) and [U-^13C10,^15N2]dT (Cambridge Isotopes, CNLM-3902) at 5 µM and [^15N2]orotate (Cambridge Isotopes, NLM-1048) at indicated concentrations. The cells were incubated for 12 h or as indicated before sample collection and processing.
The rates of dCTP incorporation into the DNA were determined using linear regression with procedure GLM in SAS (v. 9.4). DNA % label was transformed using a shifted log addition of 1 due to the presence of zeros in the data set. Rates were calculated using the slope of the regression line for the log transformed data and are presented in the table with the associated standard errors, along with the ratio between the rate of incorporation into DNA by the de novo and salvage pathways (Table 1).
Cell cycle synchronization. Cells were treated with a CDK4/6 inhibitor, Pablociclib or PD-0332991 (Selleckchem, S1116) for 18 h to synchronize them in the G1 phase. Subsequently, cells were washed twice with PBS containing 2% FBS (Omega Scientific) and released into fresh media. […]
Clinical Microarray Core on an Illumina HiSeq3000 using the SeqCap EZ Exome Enrichment Kit v3.0 (Roche).
Reads were mapped to UCSC hg19 (bwa-mem), deduplicaed (PicardTools), and subjected to base quality score recalibration and realignment around known indels according to the Broad Institute Genome Analysis Toolkit (GATK) Best Practices v3.0. Variants in genes associated with nucleotide biosynthesis were identified using the GATK HaplotypeCaller, and annotated with Oncotator (http://portals.broadinstitute.org/oncotator/). dNTP sample processing. 0.5 – 1 x 10^6 cells were collected into 1.5 mL microcentrifuge tubes and centrifuged (450 x g, 4 min, 4 °C). The supernatant was carefully aspirated and the cells were washed twice with 1 mL of cold PBS, followed each time by centrifugation (450 x g, 4 min 4 °C). The PBS were aspirated.
Thereafter, the pellets were treated with 10 µL of 10% trifluoroacetic acid with internal standards (1 µM […]
s, and incubated on ice for 10 min. 40 µL of 500 mM ammonium acetate, pH = 9.3, with the same internal standard (1 µM [15N3]dCMP and [15N3]dCTP) was then added and the samples were vigorously vortexed again for 30 s. The samples were centrifuged (14,000 x g, 10 min, 4 °C) to remove cell debris. The supernatants (~ 40 µL) were transferred into HPLC injector vials. Stock solutions (10 mM) of rCTP, rCDP, dCMP, dCDP, and dCTP (Sigma Aldrich) were prepared individually in water, and stored at –20 °C before use to generate calibration standards. Calibration standards were prepared and mixed together in water with internal standards (1 µM [15N3]dCMP and [15N3]dCTP) to make working stock concentrations in 100 nM – 100 µM range.
Calibration standards were diluted 10-fold into the same nucleotide extraction solution of 10% TFA/500 mM ammonium acetate (1:4, v/v) with internal standards (1 µM [15N3]dCMP and [15N3]dCTP) to give a final concentration in 10 nM – 10 µM. Nucleotide and calibration samples were processed together to minimize […]
DNA sample processing. Genomic DNA from 0.5 – 1 x 10^4 cells was extracted using the Quick-gDNA MiniPrep kit (Zymo Research, D3021) and hydrolyzed to nucleosides using the DNA Degradase Plus kit (Zymo Research, E2021), following manufacturer-supplied instructions. In the final step of DNA extraction, 50 µL of […]
water was used to elute the DNA into 1.5 mL microcentrifuge tubes. A nuclease solution (5 µL; 10X buffer/DNA Degradase Plus™/water, 2.5/1/1.5, v/v/v) was added to 20 µL of the eluted genomic DNA in an HPLC injector […]
vial. […]

[1] = CEM 12 h, 1 uM VE-822, 1 uM DI-82, 500 nM 3-AP, #1-#3
[2] = CEM after release from G1 arrest

CNCc1ccc(-c2cc(-c3nc(-c4ccc(S(=O)(=O)C(C)C)cc4)cnc3N)on2)cc1 [VE-822]
reduction in overall DNA labeling compared to untreated cells (12 h time point after release from G1 arrest): 30%
% sum abundance, de novo DNA-C, mass increase in nucleobase +0, in deoxyribose +3 [1]: 0.14% and 0.15% and 0.16%
% sum abundance, de novo DNA-C, mass increase in nucleobase +0, in deoxyribose +4 [1]: 0.43% and 0.45% and 0.46%
% sum abundance, de novo DNA-C, mass increase in nucleobase +0, in deoxyribose +5 [1]: 7.38% and 7.69% and 7.03%
% sum abundance, de novo DNA-C, mass increase in nucleobase +1, in deoxyribose +3 [1]: 0.00%
% sum abundance, de novo DNA-C, mass increase in nucleobase +1, in deoxyribose +4 [1]: 0.06% and 0.0569% and 0.066%
% sum abundance, de novo DNA-C, mass increase in nucleobase +1, in deoxyribose +5 [1]: 0.95% and 0.96% and 0.91%
% sum abundance, de novo DNA-C, mass increase in nucleobase +2, in deoxyribose +4 [1]: 0.0654% and 0.0348% and 0.0476%
% sum abundance, de novo DNA-C, mass increase in nucleobase +2, in deoxyribose +5 [1]: 0.64% and 0.67% and 0.62%
% sum abundance, de novo DNA-C, mass increase in nucleobase +3, in deoxyribose +4 [1]: 0.00%
% sum abundance, de novo DNA-C, mass increase in nucleobase +3, in deoxyribose +5 [1]: 0.16% and 0.17% and 0.14%
% sum abundance, de novo DNA-C, mass increase in nucleobase +4, in deoxyribose +4 [1]: 0.00%
% sum abundance, de novo DNA-C, mass increase in nucleobase +4, in deoxyribose +5 [1]: 0.00%
% sum abundance, salvage DNA-C, mass increase in nucleobase +5, in deoxyribose +0 [1]: 0.00%
% sum abundance, salvage DNA-C, mass increase in nucleobase +5, in deoxyribose +4 [1]: 0.00%
% sum abundance, salvage DNA-C, mass increase in nucleobase +5, in deoxyribose +5 [1]: 0.00%
% sum abundance, salvage DNA-C, mass increase in nucleobase +6, in deoxyribose +0 [1]: 0.00%
% sum abundance, salvage DNA-C, mass increase in nucleobase +6, in deoxyribose +4 [1]: 0.00%
% sum abundance, salvage DNA-C, mass increase in nucleobase +6, in deoxyribose +5 [1]: 0.09%
% sum abundance, salvage DNA-C, mass increase in nucleobase +7, in deoxyribose +0 [1]: 0.00%
% sum abundance, salvage DNA-C, mass increase in nucleobase +7, in deoxyribose +4 [1]: 0.06% and 0.07%
% sum abundance, salvage DNA-C, mass increase in nucleobase +7, in deoxyribose +5 [1]: 1.08% and 1.19% and 1.11%
% sum abundance, unlabeled DNA-C, mass increase in nucleobase +0, in deoxyribose +0 [1]: 78.84% and 78.52% and 79.31%
% sum abundance, unlabeled DNA-C, mass increase in nucleobase +0, in deoxyribose +1 [1]: 4.53% and 4.48% and 4.46%
% sum abundance, unlabeled DNA-C, mass increase in nucleobase +0, in deoxyribose +2 [1]: 0.68% and 0.72%
% sum abundance, unlabeled DNA-C, mass increase in nucleobase +1, in deoxyribose +0 [1]: 4.47% and 4.26% and 4.33%
% sum abundance, unlabeled DNA-C, mass increase in nucleobase +1, in deoxyribose +1 [1]: 0.21% and 0.22% and 0.24%
% sum abundance, unlabeled DNA-C, mass increase in nucleobase +1, in deoxyribose +2 [1]: 0.00%
% sum abundance, unlabeled DNA-C, mass increase in nucleobase +2, in deoxyribose +0 [1]: 0.24% and 0.27% and 0.28%
% sum abundance, unlabeled DNA-C, mass increase in nucleobase +2, in deoxyribose +1 [1]: 0.00%
% sum abundance, unlabeled DNA-C, mass increase in nucleobase +2, in deoxyribose +2 [1]: 0.00%
% sum abundance, unlabeled DNA-C, mass increase in nucleobase +3, in deoxyribose +0 [1]: 0.00%
% sum abundance, unlabeled DNA-C, mass increase in nucleobase +3, in deoxyribose +1 [1]: 0.00%
% sum abundance, unlabeled DNA-C, mass increase in nucleobase +4, in deoxyribose +0 [1]: 0.00%
De novo: rate of dCTP incorporation into newly replicated DNA (slope ± standard error of regression line) [2]: 0.17 ± 0.01 arbitrary unit
Ratio (salvage/de novo) [2]: 0.85
Salvage: rate of dCTP incorporation into newly replicated DNA (slope ± standard error of regression line) [2]: 0.14 ± 0.01 arbitrary unit
free dCTP levels or their biosynthetic origins (after release from G1 arrest): did not alter
decrease of [13C6]glucose labeling of the rCDP pool (asynchronous CEM, 12 h): 40%
reduction of dCK activity (contribution of labeled [13C9,15N3]dC to intracellular dCMP) (asynchronous CEM, 12 h): ~ 33%
Substrate utilization Glucose (summary Fig. 2g, CEM cells): ↓
Substrate utilization dC (summary Fig. 2g, CEM cells): ↓
